Literature values, collected in paper PMC9633261, “Preclinical evaluation and first in human study of Al^18F radiolabeled ODAP-urea-based PSMA targeting ligand for PET imaging of prostate cancer” (Frontiers in Oncology, 2022).
Like-named read-outs stand apart in the source and are kept apart here.

Row | absorbed dose kidneys (reported by Afshar-Oromieh et al. ref [37]) | absorbed dose kidneys (reported by Pfob et al. ref [38]) | absorbed dose kidneys (ref [39]) | Compound
1 | 0.262 mGy/MBq | 0.121 mGy/MBq | – | O=C([O-])CN(CCN(CC(=O)[O-])Cc1cc(CCC(=O)NCCCCCC(=O)NCCCC[C@H](NC(=O)N[C@@H](CCC(=O)O)C(=O)O)C(=O)O)ccc1[O-])Cc1cc(CCC(=O)O)ccc1[O-].[68Ga+3].[OH3+] [^68Ga-PSMA-11]
2 | – | – | 0.0945 mGy/MBq | O=C(O)CC[C@H](NC(=O)N[C@@H](CCCCNC(=O)c1ccc([18F])nc1)C(=O)O)C(=O)O [^18F-DCFPyL]
